From publication PMC7071059, “Targeting Receptor Tyrosine Kinase VEGFR-2 in Hepatocellular Cancer: Rational Design, Synthesis and Biological Evaluation of 1,2-Disubstituted Benzimidazoles” (Molecules, 2020)

Tests used:
SF-268 = assay: NCI 60 one dose (10 μM) anticancer assay; type: cell-based; conditions: Homo sapiens, 10 µM one dose, CNS Cancer, read-out: Growth Inhibition % SF-268
Protocol: (§1) Some of the synthesized compounds were selected by the NCI, Bethesda, MD, USA for evaluation of their anticancer activity. An in vitro one dose (10 μM) anticancer assay was conducted on a full NCI 60-cell line panel derived from 9 different cancer types. Table 2 presents the percent of growth inhibition of some cell lines. […] K-562 and MOLT-4 from leukemia, NCI-H522 from non-small cell lung cancer, HCT-116 from colon cancer, SK-MEL-5 and UACC-62 from melanoma, UO-31 from renal cancer, PC-3 from prostate cancer and HS 578T and T-47D from breast cancer are the most sensitive cell lines to the tested compounds. No growth inhibition was observed from the selected compounds against COLO205, HCC-2998, MALME-3M, SK-MEL-28, DU-145 and BT-549 cell lines. […] Against UO-31 from renal cancer and PC-3 from prostate cancer, it inhibited the growth of 44% and 58% of the cancer cells, respectively.

SNB-75 = assay: NCI 60 one dose (10 μM) anticancer assay; type: cell-based; conditions: Homo sapiens, 10 µM one dose, CNS Cancer, read-out: Growth Inhibition % SNB-75
Protocol: as §1

HOP-62 = assay: NCI 60 one dose (10 μM) anticancer assay; type: cell-based; conditions: Homo sapiens, 10 µM one dose, Non-small cell lung Cancer, read-out: Growth Inhibition % HOP-62
Protocol: as §1

RXF 393 = assay: NCI 60 one dose (10 μM) anticancer assay; type: cell-based; conditions: Homo sapiens, 10 µM one dose, Renal Cancer, read-out: Growth Inhibition % RXF 393
Protocol: as §1

HCT-15 = assay: NCI 60 one dose (10 μM) anticancer assay; type: cell-based; conditions: Homo sapiens, 10 µM one dose, Colon Cancer, read-out: Growth Inhibition % HCT-15
Protocol: as §1

PC-3 = assay: NCI 60 one dose (10 μM) anticancer assay; type: cell-based; conditions: Homo sapiens, 10 µM one dose, Prostate Cancer, read-out: Growth Inhibition % PC-3
Protocol: as §1

CAK1-1 = assay: NCI 60 one dose (10 μM) anticancer assay; type: cell-based; conditions: 10 µM one dose; Renal Cancer; read-out: Growth Inhibition % CAK1-1
Protocol: as §1

HCT-116 = assay: NCI 60 one dose (10 μM) anticancer assay; type: cell-based; conditions: Homo sapiens, 10 µM one dose, Colon Cancer, read-out: Growth Inhibition % HCT-116
Protocol: as §1

HOP-92 = assay: NCI 60 one dose (10 μM) anticancer assay; type: cell-based; conditions: Homo sapiens, 10 µM one dose, Non-small cell lung Cancer, read-out: Growth Inhibition % HOP-92
Protocol: as §1

NCI-H226 = assay: NCI 60 one dose (10 μM) anticancer assay; type: cell-based; conditions: Homo sapiens, 10 µM one dose, Non-small cell lung Cancer, read-out: Growth Inhibition % NCI-H226
Protocol: as §1

CCRF-CEM = assay: NCI 60 one dose (10 μM) anticancer assay; type: cell-based; conditions: Homo sapiens, 10 µM one dose, Leukemia, read-out: Growth Inhibition % CCRF-CEM
Protocol: as §1

OVCAR-5 = assay: NCI 60 one dose (10 μM) anticancer assay; type: cell-based; conditions: Homo sapiens, 10 µM one dose, Ovarian Cancer, read-out: Growth Inhibition % OVCAR-5
Protocol: as §1

A498 = assay: NCI 60 one dose (10 μM) anticancer assay; type: cell-based; conditions: Homo sapiens, 10 µM one dose, Renal Cancer, read-out: Growth Inhibition % A498
Protocol: as §1

LOX IMVI = assay: NCI 60 one dose (10 μM) anticancer assay; type: cell-based; conditions: Homo sapiens, 10 µM one dose, Melanoma, read-out: Growth Inhibition % LOX IMVI
Protocol: as §1

K-562 = assay: NCI 60 one dose (10 μM) anticancer assay; type: cell-based; conditions: Homo sapiens, K562; 10 µM one dose; Leukemia; read-out: Growth Inhibition % K-562
Protocol: as §1

BT-549 = assay: NCI 60 one dose (10 μM) anticancer assay; type: cell-based; conditions: Homo sapiens, 10 µM one dose, Breast Cancer, read-out: Growth Inhibition % BT-549
Protocol: as §1

EKVX = assay: NCI 60 one dose (10 μM) anticancer assay; type: cell-based; conditions: Homo sapiens, 10 µM one dose, Non-small cell lung Cancer, read-out: Growth Inhibition % EKVX
Protocol: as §1

PRMI-8226 = assay: NCI 60 one dose (10 μM) anticancer assay; type: cell-based; conditions: 10 µM one dose; Leukemia; read-out: Growth Inhibition % PRMI-8226
Protocol: as §1

HSF cell line = assay: In vitro growth inhibitory activity on normal human skin fibroblast, SRB assay; type: cell-based
Protocol: The anticancer activity of the synthesized compounds was measured in vitro using the Sulfo-Rhodamine-B (SRB) assay according to Skehan et al.. Briefly, HepG2 or HSF cells (obtained from Nawah Scientific) were inoculated in 96-well microtiter plates (10^4 cells/ well) for 24 h before treatment with the tested compounds to allow attachment of cells to the walls of the plates. Test compounds were dissolved in DMSO immediately before use and diluted to the appropriate volume just before addition to the cell culture. […] Three wells were prepared for each individual dose. Monolayer cells were incubated with the compounds for 48 h at 37 °C and in an atmosphere of 5% CO2. After 48 h, cells were fixed, washed and stained for 30 min with 0.4% (w/v) SRB dissolved in 1% acetic acid. Unbound dye was removed by four washes with 1% acetic acid and attached stain was recovered with Tris-EDTA buffer. Color intensity was measured in an ELISA reader. The relation between surviving fraction and drug concentration was plotted to get the survival curve.

VEGFR-2 = VEGFR-2 (Homo sapiens, UniProt P35968); assay: Biochemical kinase assay (Kinase-Glo Plus luminescence)
Sequence of VEGFR-2 (P35968 20-1356): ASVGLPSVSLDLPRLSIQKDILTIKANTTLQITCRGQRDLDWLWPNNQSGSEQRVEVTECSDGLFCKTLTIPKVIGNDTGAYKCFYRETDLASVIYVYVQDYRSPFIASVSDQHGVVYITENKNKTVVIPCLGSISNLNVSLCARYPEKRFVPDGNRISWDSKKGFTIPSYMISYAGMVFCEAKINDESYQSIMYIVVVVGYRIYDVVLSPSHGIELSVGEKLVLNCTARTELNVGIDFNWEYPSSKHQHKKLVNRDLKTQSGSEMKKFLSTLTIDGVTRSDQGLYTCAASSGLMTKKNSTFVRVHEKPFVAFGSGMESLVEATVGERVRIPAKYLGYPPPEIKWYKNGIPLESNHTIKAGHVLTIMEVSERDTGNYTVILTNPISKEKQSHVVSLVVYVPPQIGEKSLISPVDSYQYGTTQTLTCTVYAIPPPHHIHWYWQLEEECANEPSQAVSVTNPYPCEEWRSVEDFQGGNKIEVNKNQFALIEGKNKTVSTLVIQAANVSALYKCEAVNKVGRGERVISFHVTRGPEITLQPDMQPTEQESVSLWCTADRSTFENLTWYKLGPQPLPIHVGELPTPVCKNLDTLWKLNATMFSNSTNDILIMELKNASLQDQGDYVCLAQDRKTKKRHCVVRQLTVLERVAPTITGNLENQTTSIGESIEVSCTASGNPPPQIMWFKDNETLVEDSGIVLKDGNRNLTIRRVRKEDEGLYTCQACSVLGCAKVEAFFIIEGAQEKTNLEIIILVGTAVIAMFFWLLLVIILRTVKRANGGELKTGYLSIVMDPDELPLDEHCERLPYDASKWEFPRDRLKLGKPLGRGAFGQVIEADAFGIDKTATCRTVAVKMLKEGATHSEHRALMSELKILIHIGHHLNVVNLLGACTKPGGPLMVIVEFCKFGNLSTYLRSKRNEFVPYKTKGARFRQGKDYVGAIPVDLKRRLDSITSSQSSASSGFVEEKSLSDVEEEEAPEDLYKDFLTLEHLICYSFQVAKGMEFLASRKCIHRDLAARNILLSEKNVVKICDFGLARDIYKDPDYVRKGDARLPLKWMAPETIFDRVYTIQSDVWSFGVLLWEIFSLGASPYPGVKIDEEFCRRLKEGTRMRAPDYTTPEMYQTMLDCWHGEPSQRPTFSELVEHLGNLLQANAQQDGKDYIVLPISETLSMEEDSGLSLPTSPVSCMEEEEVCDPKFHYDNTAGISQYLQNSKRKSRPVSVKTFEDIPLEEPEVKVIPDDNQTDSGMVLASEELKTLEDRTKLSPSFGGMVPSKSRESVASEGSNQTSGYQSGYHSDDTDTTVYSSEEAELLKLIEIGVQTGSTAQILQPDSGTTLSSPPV
Protocol: This assay was carried out using the VEGFR-2 kinase enzyme system or FGFR-1 kinase enzyme system and Kinase-Glo Plus luminescence kinase (Promega) kits according to the manufacturers´ protocols. This assay evaluated the activity of kinase by measuring the amount of ATP remaining in solution after a kinase reaction. The luminescent signal from the assay was related to the quantity of ATP available, which was inversely proportional to the amount of kinase activity. […] Subsequently, serial dilutions were carried out, and 5 µL of the dilution was added to a 50 µL reaction. The enzymatic reactions were performed at 30 °C for 45 minutes. The 50 µL reaction mixture contained 40 mM Tris, pH 7.4, 10 mM MgCl2, 0.1 mg/mL BSA, 1 mM DTT, 0.2 mg/ml Poly (Glu, Tyr) substrate, 10 μM ATP and protein. After the enzymatic reaction, 50 µL of Kinase-Glo Plus Luminescence kinase assay solution was added to each reaction, and the plates were incubated for 15 minutes at room temperature. The luminescence signal was measured using a Tecan–spark multimode microplate reader. The difference between luminescence intensities in the absence of Kinase (Lut) and in the presence of Kinase (Luc) was defined as 100% activity (Lut − Luc). Using a luminescence signal (Lu) in the presence of the compound, % activity was calculated as: % activity = {(Lut − Lu)/(Lut − Luc)}×100%, where Lu = the luminescence intensity in the presence of the compound.

SMILES	inhibition at 10 µM (SF-268) [%]	inhibition at 10 µM (SNB-75) [%]	inhibition at 10 µM (HOP-62) [%]	inhibition at 10 µM (RXF 393) [%]	inhibition at 10 µM (HCT-15) [%]	inhibition at 10 µM (PC-3) [%]	inhibition at 10 µM (CAK1-1) [%]	inhibition at 10 µM (HCT-116) [%]	inhibition at 10 µM (HOP-92) [%]	inhibition at 10 µM (NCI-H226) [%]	inhibition at 10 µM (CCRF-CEM) [%]	inhibition at 10 µM (OVCAR-5) [%]	inhibition at 10 µM (A498) [%]	inhibition at 10 µM (LOX IMVI) [%]	inhibition at 10 µM (K-562) [%]	inhibition at 10 µM (BT-549) [%]	inhibition at 10 µM (EKVX) [%]	melting point [°C]	other results
C/C(=N\NC(=O)Cn1c(C(C)C)nc2ccccc21)c1ccccc1 [Compound 14a, (E)-2-(2-Isopropyl-1H-benzo[d]imidazol-1-yl)-N′-(1-phenylethylidene)acetohydrazide]	< 10	18	< 10	33	< 10	< 10	12	< 10	18	22	16	21	49	< 10	< 10	< 10	< 10	176 to 178	inhibition at 10 µM (PRMI-8226): < 10%
CC(C)c1nc2ccccc2n1CC(=O)N/N=C/c1cccc(OCc2ccccc2)c1 [Compound 17a, (E)-N′-(3-(Benzyloxy)benzylidene)-2-(2-isopropyl-1H-benzo[d]imidazol-1-yl)acetohydrazide]	< 10	15	< 10	< 10	< 10	58	< 10	66		29	41	< 10	17	< 10	57	28	21		IC50 (HSF cell line; Homo sapiens, HSF, SRB assay, 48 h, normal cell line, mean of three independent experiments): 19.9 µM; selectivity to the HepG2 cell line over the normal HSF cell line (HSF cell line; from IC50 HSF vs IC50 HepG2): about ten-fold higher selectivity; IC50 (VEGFR-2): 0.11 ± 0.003 µM
CC(C)c1nc2ccccc2n1CC(=O)N/N=C/c1ccc(OCc2ccccc2)cc1 [Compound 17c, (E)-N′-(4-(Benzyloxy)benzylidene)-2-(2-isopropyl-1H-benzo[d]imidazol-1-yl)acetohydrazide]	< 10	< 10	< 10	< 10	< 10	17	15	18	< 10	< 10	< 10	< 10	< 10	< 10	28	< 10	< 10	209 to 211	
Cc1ccc(-c2nc3ccccc3n2CC(=O)N/N=C/c2ccc(OCc3ccccc3)cc2)o1 [Compound 17d, (E)-N′-(4-(Benzyloxy)benzylidene)-2-(2-(5-methylfuran-2-yl)-1H-benzo[d]imidazol-1-yl)acetohydrazide]	23	20	17	< 10	25	29	21	< 10		< 10	< 10	< 10	17	17	41	< 10	21	201 to 203	
COc1cc(/C=N/NC(=O)Cn2c(C(C)C)nc3ccccc32)ccc1OCc1ccccc1 [Compound 17e, (E)-N′-(4-(Benzyloxy)-3-methoxybenzylidene)-2-(2-isopropyl-1H-benzo[d]imidazol-1-yl)acetohydrazide]	< 10	< 10	< 10	< 10	< 10	20	< 10	< 10	< 10	< 10	< 10	< 10	22	< 10	25	< 10	< 10	180 to 182	
COc1cc(/C=N/NC(=O)Cn2c(-c3ccc(C)o3)nc3ccccc32)ccc1OCc1ccccc1 [Compound 17f, (E)-N′-(4-(Benzyloxy)-3-methoxybenzylidene)-2-(2-(5-methylfuran-2-yl)-1H-benzo[d]imidazol-1-yl)acetohydrazide]	24	17	< 10	< 10	26	37	17	28		16	19	< 10	21	< 10	34	< 10	25	139 to 141	
